Test results as given in patent publication US4103005A, “Novel-enkephalin analogs” (Hoffmann-La Roche Inc., priority 1977, dated 1978).
Where a SMILES comes first, the peptide text is derived from it. [ ]: non-standard residue; d: D form. Thz = O=C(O)[C@@H]1CSCN1

What was measured:
[1] = tested on: male ICR mice; assay: Analgesic assay by the tail-flick method in mice; assay type: in vivo; conditions: for Tail-flick inhibition after intravenous injection: 1.1 to 8.5 mg/kg injected intravenously; for Effect of naloxone pretreatment on inhibition of the tail-flick response: Naloxone HCl 3 mg/kg subcutaneously 5 min before the analog; for Tail-flick inhibition after central application: doses 0.17 to 0.85 μg (D-Met analog) and 0.011 to 0.085 μg (D-Thr analog); for Intracerebroventricular AD50 (median antinociceptive dose) / Intracerebroventricular potency ratio / Intravenous AD50 (median antinociceptive dose) / Intravenous potency ratio: mice; for Intracerebroventricular AD50 (median antinociceptive dose): intracerebroventricular (central) injection; for Intracerebroventricular AD50 (median antinociceptive dose) / Intravenous AD50 (median antinociceptive dose): tail-flick; for Intracerebroventricular potency ratio / Intravenous potency ratio: relative to morphine sulfate = 1, molar basis; for Intravenous AD50 (median antinociceptive dose): intravenous injection via tail vein; for Analgesic activity (summary statement): mouse, in vivo
Method: For analgesic assay, male ICR mice weighing 25-30 g were used in all the experiments. The enkephalin analogs dissolved in saline were administered either centrally according to the method described by Haley and McCormick, Br. J. Pharmacol, 12, 12 (1957) or intravenously via the tail vein. The injection volume is 5 μl for central injection and 10 μl per gram body weight for intravenous injection. Naloxone HCl (3 mg/kg) was injected subcutaneously 5 min before the administration of enkephalin analogs. Analgesic activity was assayed by the tail-flick method of D'Amour and Smith, J. Pharmacol, Exp. Ther. 72, 74 (1941).
The percent of analgesia was calculated as [(T1 -T0)/(T2 -T0)] × 100, where a control latency (T0) was obtained from the mean of two latencies determined before drug injection; the test latencies (T1) were determined at various times after injection for each animal; the cutoff time (T2) for the tail-flick was 7 seconds. The median analgesic dose (AD50) and 95% confidence limits were calculated according to the method of Litchfield and Wilcoxon, J. Pharacol. Exp. Ther. 96, 99 (1949). The locomotor activity to the mice was measured with an electronic Fe 40 motility meter (Motron Produkter, Stockholm, Sweden). The detail of the experimental method has been described by Tseng et al., Nature (London) 263, 239 (1976).

[2] = cited from earlier work; for Analgesic activity reported in the literature: in vivo
[3] = tested on: male ICR mice; conditions: cited from earlier work

Compound	Intracerebroventricular AD50 (median antinociceptive dose) [1]	Intracerebroventricular potency ratio [1]	Intravenous AD50 (median antinociceptive dose) [1]	Intravenous potency ratio [1]	also measured
C[C@H](O)[C@@H](NC(=O)[C@@H](N)Cc1ccc(O)cc1)C(=O)NCC(=O)N[C@@H](Cc1ccccc1)C(=O)N1CSC[C@H]1C(N)=O [D-Thr^2,Thz^5 -Enkephalinamide, H-Tyr-D-Thr-Gly-Phe-Thz-NH2] (H-Y[dT]GF[Thz]-NH2)	0.04 nmole/mouse	27.1	2.40 µmol/kg	4.8	Tail-flick inhibition after intravenous injection [1]: active in inhibiting the tail-flick response; Effect of naloxone pretreatment on inhibition of the tail-flick response [1]: blocked by the pretreatment of naloxone; Potency, times more potent than [D-Met^2, Thz^5 ]-enkephalinamide ([1]; applied centrally): 3.5 times; Tail-flick inhibition after central application ([1]; applied centrally): dose-related increase in intensity and duration of the tail-flick inhibition; Duration of analgesia ([1]; intravenous injection): longer than that produced by [D-Met^2,Thz^5 ]-enkephalinamide; Analgesic activity (summary statement) [1]: potent analgesic agents
[D-Met^2, Pro^5 ]-enkephalinamide					Analgesic activity reported in the literature [2]: potent analgesic agent
βc -Endorphin (YGGFMTSEKSQTPLVTLFKNAIIKNAHKKGQ; Beta-endorphin; UniProt P01203 1-31, looked up) [reference compound]	0.032 nmole/mouse	34.7	2.7 µmol/kg	4.2	Locomotor activity (previously shown) [3]: stimulate locomotor activity weakly or not at all
Met-enkephalin [reference compound]	> 174 nmole/mouse	< 0.006	> 60 µmol/kg	< 0.19	
CN1CC[C@]23c4c5ccc(O)c4O[C@H]2[C@@H](O)C=C[C@H]3[C@H]1C5.O=S(=O)(O)O [Morphine sulfate, reference compound]	1.11 nmole/mouse		11.4 µmol/kg		
D-Ala^2, MePhe^4, Met-O^5 -ol enkephalin					Analgesic activity reported in the literature [2]: most potent analgesic of the group; Oral activity reported in the literature ([2]; oral): orally active
CSCC[C@@H](NC(=O)[C@@H](N)Cc1ccc(O)cc1)C(=O)NCC(=O)N[C@@H](Cc1ccccc1)C(=O)N1CSC[C@H]1C(N)=O [D-Met^2,Thz^5 -Enkephalinamide, H-Tyr-D-Met-Gly-Phe-Thz-NH2] (H-Y[dM]GF[Thz]-NH2)	0.145 nmole/mouse	7.7	2.71 µmol/kg	4.2	Tail-flick inhibition after intravenous injection [1]: active in inhibiting the tail-flick response; Effect of naloxone pretreatment on inhibition of the tail-flick response [1]: blocked by the pretreatment of naloxone; AD50, times higher than [D-Thr^2,Thz^5 ]-enkephalinamide ([1]; applied centrally): 3.5 times; Tail-flick inhibition after central application ([1]; applied centrally): dose-related increase in intensity and duration of the tail-flick inhibition; Analgesic activity (summary statement) [1]: potent analgesic agents
D-Ala^2,D-Leu^5 -Enkephalin [reference compound]	0.035 nmole/mouse	31.7			
